Laboratory results published in ChEMBL document CHEMBL3639124, “Oxadiazole inhibitors of leukotriene production” (2013).

Target: T1, Arachidonate 5-lipoxygenase-activating protein (Homo sapiens, UniProt P20292)
T1 sequence (P20292 whole entry): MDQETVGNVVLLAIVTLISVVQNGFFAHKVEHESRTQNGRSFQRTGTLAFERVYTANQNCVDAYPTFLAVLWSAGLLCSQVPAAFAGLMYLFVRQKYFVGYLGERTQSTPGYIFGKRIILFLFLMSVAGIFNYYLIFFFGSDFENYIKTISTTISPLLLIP
Test: Binding Assay: Compounds area assessed for the ability to bind to FLAP in a binding assay that measures compound-specific displacement of an iodinated (125I) FLAP inhibitor via a scintillaion proximity assay format (adapted from S. Charleson et. al., Mol. Pharmacol., 1992,41 873-879).

| Structure (SMILES) | IC50 [nM] |
| --- | --- |
| COC(=O)[C@@H]1CN(c2ccc(-c3nc(C4(c5ccc(-c6cnc(N)nc6)nc5)CCC4)no3)cn2)CCN1 | 3.7 |
| COCCNc1cnc(-c2nc(C3(c4ccc(-c5cnc(N)nc5)nc4)CCC3)no2)cn1 | 3.2 |
| CN1CCN(c2cnc(-c3nc(C4(c5ccc(-c6cnc(N)nc6)nc5)CCC4)no3)cn2)CC1 | 1.8 |
| Nc1ncc(-c2ccc(C3(c4noc(-c5ccc6[nH]ncc6c5)n4)CCC3)cn2)cn1 | 4 |

Further lines, results first:

| IC50 [nM] | Structure (SMILES) |
| --- | --- |
| 17 | COCCn1cc(-c2nc(C3(c4ccc(-c5cnc(N)nc5)nc4)CCC3)no2)cn1 |
| 2.4 | CCNc1cnc(-c2nc(C3(c4ccc(-c5cnc(N)nc5)nc4)CCC3)no2)cn1 |
| 14 | CC(C)(C)NC(=O)Cn1cc(-c2nc(C3(c4ccc(-c5cnc(N)nc5)nc4)CCC3)no2)cn1 |
| 100 | CCNC(=O)Cn1cc(-c2nc(C3(c4ccc(-c5cnc(N)nc5)nc4)CCC3)no2)cn1 |
| 48 | N#CCn1cc(-c2nc(C3(c4ccc(-c5cnc(N)cn5)nc4)CCC3)no2)cn1 |
